Test results from publication PMC5218480 (PLoS ONE, 2017).

System: MV-4-11 cells
Test: Gene expression microarray analysis (Affymetrix PrimeView) and GSEA
Type: cell-based, human
Design: RFU PODN (11730768_x_at) / Fold change /veh PODN (11730768_x_at) / RFU LINC00158 (11744669_a_at) / Fold change /veh LINC00158 (11744669_a_at) / RFU DUSP10 (11751237_a_at) / Fold change /veh DUSP10 (11751237_a_at) / RFU ID3 (11757404_x_at) / Fold change /veh ID3 (11757404_x_at) / RFU PLEKHG5 (11737974_s_at) / Fold change /veh PLEKHG5 (11737974_s_at) / RFU LRRC4B (11730491_at) / Fold change /veh LRRC4B (11730491_at) / RFU GIMAP4 (11747438_a_at) / Fold change /veh GIMAP4 (11747438_a_at) / RFU KRT8 (11758183_x_at) / Fold change /veh KRT8 (11758183_x_at) / RFU CNN1 (11734310_a_at) / Fold change /veh CNN1 (11734310_a_at) / RFU VPS37D (11726825_at) / Fold change /veh VPS37D (11726825_at) / RFU C10orf10 (11716522_x_at) / Fold change /veh C10orf10 (11716522_x_at) / RFU KIR2DL2 /// KIR2DL4 /// KIR2DL5A /// KIR2DL5B /// KIR2DS1 /// KIR2DS2 /// KIR2DS3 /// KIR2DS4 /// KIR3DL3 /// KIR3DL3 /// KIR3DS1 (11738374_at) / Fold change /veh KIR2DL2 /// KIR2DL4 /// KIR2DL5A /// KIR2DL5B /// KIR2DS1 /// KIR2DS2 /// KIR2DS3 /// KIR2DS4 /// KIR3DL3 /// KIR3DL3 /// KIR3DS1 (11738374_at) / RFU C1QL1 (11718748_at) / Fold change /veh C1QL1 (11718748_at) / RFU TMPRSS4 (11747572_a_at) / Fold change /veh TMPRSS4 (11747572_a_at) / RFU HAMP (11756126_x_at) / Fold change /veh HAMP (11756126_x_at) / RFU RNFT2 (11725882_a_at) / Fold change /veh RNFT2 (11725882_a_at) / RFU NR4A2 (11747474_a_at) / Fold change /veh NR4A2 (11747474_a_at) / RFU ABCC12 (11746883_a_at) / Fold change /veh ABCC12 (11746883_a_at) / RFU TMEM136 (11760407_x_at) / Fold change /veh TMEM136 (11760407_x_at) / RFU CLDN22 /// WWC2 (11732394_at) / Fold change /veh CLDN22 /// WWC2 (11732394_at) / RFU HLA-DPB1 (11760878_x_at) / Fold change /veh HLA-DPB1 (11760878_x_at) / RFU SPINT1 (11716480_a_at) / Fold change /veh SPINT1 (11716480_a_at) / RFU GAP43 (11754022_s_at) / Fold change /veh GAP43 (11754022_s_at) / RFU A4GNT (11735810_at) / Fold change /veh A4GNT (11735810_at) / RFU PRB3 (11715151_x_at) / Fold change /veh PRB3 (11715151_x_at) / RFU TUBB4B (11761932_at) / Fold change /veh TUBB4B (11761932_at) / RFU CAPN14 (11732068_a_at) / Fold change /veh CAPN14 (11732068_a_at) / RFU TMCC2 (11721928_a_at) / Fold change /veh TMCC2 (11721928_a_at) / RFU IRGQ (11745062_a_at) / Fold change /veh IRGQ (11745062_a_at) / RFU FAM174B (11720279_a_at) / Fold change /veh FAM174B (11720279_a_at) / RFU TMPRSS4 (11748680_a_at) / Fold change /veh TMPRSS4 (11748680_a_at) / RFU FAM212B (11763350_a_at) / Fold change /veh FAM212B (11763350_a_at) / RFU PLEKHG5 (11743358_a_at) / Fold change /veh PLEKHG5 (11743358_a_at) / RFU ZSCAN30 (11745921_a_at) / Fold change /veh ZSCAN30 (11745921_a_at) / RFU CMKLR1 (11741424_a_at) / Fold change /veh CMKLR1 (11741424_a_at) / RFU LOC101060620 /// MAPK8IP1 (11723275_at) / Fold change /veh LOC101060620 /// MAPK8IP1 (11723275_at) / RFU SPTSSB (11747773_x_at) / Fold change /veh SPTSSB (11747773_x_at) / RFU PRSS12 (11739890_at) / Fold change /veh PRSS12 (11739890_at) / RFU BIN1 (11741810_x_at) / Fold change /veh BIN1 (11741810_x_at) / RFU WNT11 (11732464_a_at) / Fold change /veh WNT11 (11732464_a_at) / RFU C10orf10 (11716521_a_at) / Fold change /veh C10orf10 (11716521_a_at) / RFU C5orf56 (11738089_at) / Fold change /veh C5orf56 (11738089_at) / RFU CYB561 (11721691_x_at) / Fold change /veh CYB561 (11721691_x_at) / RFU ANKRD19P (11752326_a_at) / Fold change /veh ANKRD19P (11752326_a_at) / RFU OR2T12 /// OR2T33 /// OR2T8 (11738714_s_at) / Fold change /veh OR2T12 /// OR2T33 /// OR2T8 (11738714_s_at) / RFU VCAN (11748164_a_at) / Fold change /veh VCAN (11748164_a_at) / RFU JSRP1 (11732532_at) / Fold change /veh JSRP1 (11732532_at) / RFU KRTAP10-11 (11738290_x_at) / Fold change /veh KRTAP10-11 (11738290_x_at) / RFU MYO3A (11730013_a_at) / Fold change /veh MYO3A (11730013_a_at) / RFU EBF3 (11725865_a_at) / Fold change /veh EBF3 (11725865_a_at) / RFU CAMK2N1 (11719241_x_at) / Fold change /veh CAMK2N1 (11719241_x_at) / RFU C5orf56 (11738088_a_at) / Fold change /veh C5orf56 (11738088_a_at) / RFU OLFML3 (11715873_a_at) / Fold change /veh OLFML3 (11715873_a_at) / RFU LOC100653217 /// NTM (11731650_a_at) / Fold change /veh LOC100653217 /// NTM (11731650_a_at) / RFU MAPK11 (11762145_a_at) / Fold change /veh MAPK11 (11762145_a_at) / RFU FIZ1 (11724087_x_at) / Fold change /veh FIZ1 (11724087_x_at) / RFU OASL (11726364_x_at) / Fold change /veh OASL (11726364_x_at) / RFU SOX15 (11748057_x_at) / Fold change /veh SOX15 (11748057_x_at) / RFU CD79A (11719716_a_at) / Fold change /veh CD79A (11719716_a_at) / RFU HIST1H1D (11736915_at) / Fold change /veh HIST1H1D (11736915_at) / RFU CASKIN2 (11723855_a_at) / Fold change /veh CASKIN2 (11723855_a_at) / RFU LOC730098 (11760151_x_at) / Fold change /veh LOC730098 (11760151_x_at) / RFU OR4N2 (11742367_at) / Fold change /veh OR4N2 (11742367_at) / RFU PRRT2 (11749266_a_at) / Fold change /veh PRRT2 (11749266_a_at) / RFU SNX32 (11753110_a_at) / Fold change /veh SNX32 (11753110_a_at) / RFU CDHR5 (11726645_a_at) / Fold change /veh CDHR5 (11726645_a_at) / RFU RCAN1 (11760418_a_at) / Fold change /veh RCAN1 (11760418_a_at) / RFU FAM167A (11723789_a_at) / Fold change /veh FAM167A (11723789_a_at) / RFU FAM26E (11764081_at) / Fold change /veh FAM26E (11764081_at) / RFU ISYNA1 (11749810_s_at) / Fold change /veh ISYNA1 (11749810_s_at) / RFU ACY1 (11761880_at) / Fold change /veh ACY1 (11761880_at) / RFU 11764098_at / Fold change /veh 11764098_at / RFU SAMD14 (11745864_x_at) / Fold change /veh SAMD14 (11745864_x_at) / RFU NPB (11741838_a_at) / Fold change /veh NPB (11741838_a_at) / RFU TMPRSS6 (11731388_a_at) / Fold change /veh TMPRSS6 (11731388_a_at) / RFU KRTAP10-2 (11738614_at) / Fold change /veh KRTAP10-2 (11738614_at) / RFU ARHGAP8 /// PRR5-ARHGAP8 (11727945_x_at) / Fold change /veh ARHGAP8 /// PRR5-ARHGAP8 (11727945_x_at) / RFU KRTAP5-7 /// NADSYN1 (11734609_at) / Fold change /veh KRTAP5-7 /// NADSYN1 (11734609_at) / RFU RASL12 (11751679_a_at) / Fold change /veh RASL12 (11751679_a_at) / RFU CDKN2B (11736163_a_at) / Fold change /veh CDKN2B (11736163_a_at) / RFU PRF1 (11729649_at) / Fold change /veh PRF1 (11729649_at) / RFU, ZNF638 /// ZNF638-IT1 / Fold change vs veh, ZNF638 /// ZNF638-IT1 / RFU, PANK3 / Fold change vs veh, PANK3 / RFU, SH3YL1 / Fold change vs veh, SH3YL1 / RFU, ZEB2 / Fold change vs veh, ZEB2 / RFU, NRIP1 / Fold change vs veh, NRIP1 / RFU, PTTG1IP / Fold change vs veh, PTTG1IP / RFU, CAPN2 / Fold change vs veh, CAPN2 / RFU, MED14 / Fold change vs veh, MED14 / RFU, SNORA58 / Fold change vs veh, SNORA58 / RFU, C1orf63 / Fold change vs veh, C1orf63 / RFU, LRRFIP1 / Fold change vs veh, LRRFIP1 / RFU, NDUFAF7 / Fold change vs veh, NDUFAF7 / RFU, SLC12A2 / Fold change vs veh, SLC12A2 / RFU, IBTK / Fold change vs veh, IBTK / RFU, ESF1 / Fold change vs veh, ESF1 / Fold change vs veh, TMEM50B / RFU, TAOK1 / Fold change vs veh, TAOK1 / RFU, ACBD3 / Fold change vs veh, ACBD3 / RFU, TMA16 / Fold change vs veh, TMA16 / RFU, RWDD3 / Fold change vs veh, RWDD3 / RFU, BCAT1 / Fold change vs veh, BCAT1 / RFU, EDEM3 / Fold change vs veh, EDEM3 / RFU, TMEM33 / Fold change vs veh, TMEM33 / RFU, WDR75 / Fold change vs veh, WDR75 / RFU, AHCTF1 / Fold change vs veh, AHCTF1 / RFU, TFRC / Fold change vs veh, TFRC / RFU, ZDHHC17 / Fold change vs veh, ZDHHC17 / RFU, NOM1 / Fold change vs veh, NOM1 / RFU, ARL8B / Fold change vs veh, ARL8B / RFU, ZBTB11 / Fold change vs veh, ZBTB11 / RFU, TAMM41 / Fold change vs veh, TAMM41 / RFU, KIAA1704 /// LOC100996395 / Fold change vs veh, KIAA1704 /// LOC100996395 / RFU, ING1 / Fold change vs veh, ING1 / RFU, TRMT61B / Fold change vs veh, TRMT61B / RFU, FUBP3 / Fold change vs veh, FUBP3 / RFU, TP53 / Fold change vs veh, TP53 / RFU, TNKS2 / Fold change vs veh, TNKS2 / RFU, ZFP14 / Fold change vs veh, ZFP14 / RFU, ACTR2 / Fold change vs veh, ACTR2 / RFU, PPP3R1 / Fold change vs veh, PPP3R1 / RFU, PIK3R1 / Fold change vs veh, PIK3R1 / RFU, HNRNPA1 / Fold change vs veh, HNRNPA1 / RFU, RNF170 / Fold change vs veh, RNF170 / RFU, ZNF28 / Fold change vs veh, ZNF28 / RFU, RNGTT / Fold change vs veh, RNGTT / RFU, OGT / Fold change vs veh, OGT / RFU, BRD1 / Fold change vs veh, BRD1 / RFU, MARS / Fold change vs veh, MARS / RFU, ZNF655 / Fold change vs veh, ZNF655 / RFU, FAHD1 / Fold change vs veh, FAHD1 / RFU, BDP1 / Fold change vs veh, BDP1 / RFU, LRRCC1 / Fold change vs veh, LRRCC1 / RFU, ARID1A / Fold change vs veh, ARID1A / RFU, ZNF146 / Fold change vs veh, ZNF146 / RFU, ZNF330 / Fold change vs veh, ZNF330 / RFU, GPN3 / Fold change vs veh, GPN3 / RFU, C9orf123 / Fold change vs veh, C9orf123 / RFU, N4BP2L2 / Fold change vs veh, N4BP2L2 / RFU, ARFIP1 / Fold change vs veh, ARFIP1 / RFU, FAM179B / Fold change vs veh, FAM179B / RFU, BCL10 / Fold change vs veh, BCL10 / RFU, UHRF1BP1L / Fold change vs veh, UHRF1BP1L / RFU, BET1 / Fold change vs veh, BET1 / RFU, CNOT2 / Fold change vs veh, CNOT2 / RFU, ZNF268 / Fold change vs veh, ZNF268 / Fold change vs veh, ZNF507 / RFU, DGCR2 / Fold change vs veh, DGCR2 / RFU, WDSUB1 / Fold change vs veh, WDSUB1 / Fold change vs veh, HSP90B1 /// MIR3652 / RFU, ADSS / Fold change vs veh, ADSS / RFU, GK / Fold change vs veh, GK / RFU, ZNF148 / Fold change vs veh, ZNF148 / RFU, TAF9 / Fold change vs veh, TAF9 / RFU, SLC1A5 / Fold change vs veh, SLC1A5 / RFU, SLMO2 / Fold change vs veh, SLMO2 / RFU, ABCC4 / Fold change vs veh, ABCC4 / RFU, LOC101060439 /// RAP1B / Fold change vs veh, LOC101060439 /// RAP1B / RFU, RFX7 / Fold change vs veh, RFX7 / RFU, GTPBP10 / Fold change vs veh, GTPBP10 / RFU, CNEP1R1 / Fold change vs veh, CNEP1R1 / RFU, BIVM-ERCC5 /// ERCC5 / Fold change vs veh, BIVM-ERCC5 /// ERCC5 / RFU, ILF3 / Fold change vs veh, ILF3 / RFU 11762660_at / Fold change /veh 11762660_at / RFU VCAN (11757783_s_at) / Fold change /veh VCAN (11757783_s_at) / RFU DDX43 (11728927_at) / Fold change /veh DDX43 (11728927_at) / RFU KRT8 (11758188_x_at) / Fold change /veh KRT8 (11758188_x_at) / RFU NKD1 (11759106_at) / Fold change /veh NKD1 (11759106_at) / RFU SRD5A1 (11742802_a_at) / Fold change /veh SRD5A1 (11742802_a_at) / RFU TPSAB1 /// TPSB2 (11721975_s_at) / Fold change /veh TPSAB1 /// TPSB2 (11721975_s_at) / RFU GSTM3 (11746129_a_at) / Fold change /veh GSTM3 (11746129_a_at) / RFU IL23R (11737362_x_at) / Fold change /veh IL23R (11737362_x_at) / RFU TMEM51 (11727254_a_at) / Fold change /veh TMEM51 (11727254_a_at) / RFU PIWIL2 (11732686_x_at) / Fold change /veh PIWIL2 (11732686_x_at) / RFU ORM1 (11744905_x_at) / Fold change /veh ORM1 (11744905_x_at) / RFU CCDC152 (11743942_at) / Fold change /veh CCDC152 (11743942_at) / RFU ECM1 (11717891_a_at) / Fold change /veh ECM1 (11717891_a_at) / RFU IL23R (11748794_a_at) / Fold change /veh IL23R (11748794_a_at) / RFU TNFAIP8L3 (11732012_x_at) / Fold change /veh TNFAIP8L3 (11732012_x_at) / RFU MBOAT4 (11741988_at) / Fold change /veh MBOAT4 (11741988_at) / RFU 11764193_at / Fold change /veh 11764193_at / RFU TMEM53 (11763286_at) / Fold change /veh TMEM53 (11763286_at) / RFU MAGEB2 (11727129_at) / Fold change /veh MAGEB2 (11727129_at) / RFU TMEM200A (11744735_a_at) / Fold change /veh TMEM200A (11744735_a_at) / RFU CCDC152 (11751479_a_at) / Fold change /veh CCDC152 (11751479_a_at) / RFU FAM211A (11726209_a_at) / Fold change /veh FAM211A (11726209_a_at) / RFU RGS16 (11746705_a_at) / Fold change /veh RGS16 (11746705_a_at) / RFU VCAN (11755009_s_at) / Fold change /veh VCAN (11755009_s_at) / RFU RHOB (11743442_s_at) / Fold change /veh RHOB (11743442_s_at) / RFU RGS16 (11720943_a_at) / Fold change /veh RGS16 (11720943_a_at) / RFU RGS16 (11720944_at) / Fold change /veh RGS16 (11720944_at) / RFU, VPS4B / Fold change vs veh, VPS4B / RFU, CREB1 / Fold change vs veh, CREB1 / RFU, DNAJC13 / Fold change vs veh, DNAJC13 / RFU, GNAQ / Fold change vs veh, GNAQ / RFU, CDK5R1 / Fold change vs veh, CDK5R1 / RFU, ZRANB3 / Fold change vs veh, ZRANB3 / RFU, CUL4A / Fold change vs veh, CUL4A / RFU, CCNY / Fold change vs veh, CCNY / RFU, UFL1 / Fold change vs veh, UFL1 / RFU, COG3 / Fold change vs veh, COG3 / RFU, DIAPH2 / Fold change vs veh, DIAPH2 / RFU, SKA2 / Fold change vs veh, SKA2 / RFU, AFF3 / Fold change vs veh, AFF3 / RFU, LMF1 / Fold change vs veh, LMF1 / RFU, IPO11 / Fold change vs veh, IPO11 / RFU, DFFB / Fold change vs veh, DFFB / RFU, FOXP1 / Fold change vs veh, FOXP1 / RFU, CARD8 / Fold change vs veh, CARD8 / RFU, STRN3 / Fold change vs veh, STRN3 / RFU, ADK / Fold change vs veh, ADK / RFU, RASSF2 / Fold change vs veh, RASSF2 / RFU, WIPF1 / Fold change vs veh, WIPF1 / RFU, LARP1B / Fold change vs veh, LARP1B / RFU, RASA1 / Fold change vs veh, RASA1 / RFU, RB1 / Fold change vs veh, RB1 / RFU, PPFIA1 / Fold change vs veh, PPFIA1 / RFU, MAT2A / Fold change vs veh, MAT2A / RFU, CCT5 / Fold change vs veh, CCT5 / RFU, WDR92 / Fold change vs veh, WDR92 / RFU, CUX1 / Fold change vs veh, CUX1 / RFU, TTC7A / Fold change vs veh, TTC7A / RFU, TMEM135 / Fold change vs veh, TMEM135 / RFU, DEPTOR / Fold change vs veh, DEPTOR / RFU, CPM / Fold change vs veh, CPM / RFU, DNAJB6 / Fold change vs veh, DNAJB6 / RFU, CACNA2D3 / Fold change vs veh, CACNA2D3 / RFU, DTX4 / Fold change vs veh, DTX4 / RFU, TFCP2 / Fold change vs veh, TFCP2 / RFU, GMCL1 /// GMCL1P1 / Fold change vs veh, GMCL1 /// GMCL1P1 / RFU, AEBP2 / Fold change vs veh, AEBP2 / RFU, SNHG1 /// SNORD22 /// SNORD25 /// SNORD26 /// SNORD27 /// SNORD28 /// SNORD29 /// SNORD31 / Fold change vs veh, SNHG1 /// SNORD22 /// SNORD25 /// SNORD26 /// SNORD27 /// SNORD28 /// SNORD29 /// SNORD31 / Fold change (Aza/veh), C12orf56 (ProbeSet 11735607_a_at) / Fold change (ACY-1035/veh), C12orf56 (ProbeSet 11735607_a_at) / Fold change (Aza/veh), FGFR1OP (ProbeSet 11751329_s_at) / Fold change (ACY-1035/veh), FGFR1OP (ProbeSet 11751329_s_at) / Fold change (Aza/veh), VPS36 (ProbeSet 11739960_a_at) / Fold change (ACY-1035/veh), VPS36 (ProbeSet 11739960_a_at) / RFU SYPL1 (11715823_x_at) / Fold change /veh SYPL1 (11715823_x_at) / RFU IGFBP7 (11715501_s_at) / Fold change /veh IGFBP7 (11715501_s_at) / RFU REEP3 (11722064_at) / Fold change /veh REEP3 (11722064_at) / RFU IGLL1 (11728026_x_at) / Fold change /veh IGLL1 (11728026_x_at): dose or concentration left out as unconfirmed
Details: MV-4-11 cells, 48 hours

## Nc1ccc(-c2cccs2)cc1NC(=O)c1ccc2c(c1)cc(C1CC1)n2CCN1CCOCC1 [ACY-1035]
  Fold change /veh MBOAT4 (11741988_at): 1.14
